Test results from the supplement of paper PMC11424490.

Assays:
NCI-H2122 = assay: combination cScore with adagrasib (Bliss gap around IC50) (%PoC); higher = stronger additive effect
Method: (§1)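 Combination screen of 179 inhibitors with the KRAS G12C inhibitor adagrasib (MRTX849) in dose matrices, CellTiter-Glo readout in NCI-H2122 (72 h), SW837 (144 h) and NCI-H358 cells. The cScore is the mean Bliss-independence gap (expected minus observed viability, in %PoC) over a 3x3 field around the IC50s of both drugs. Positive means additive, and >~10 is stated as clear additive.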

SW837 = assay: as above
Method: as §1

Row | Compound | combination cScore with adagrasib (NCI-H2122) | combination cScore with adagrasib (SW837)
1 | COc1cccc2c1C(=O)c1c(O)c3c(c(O)c1C2=O)C[C@@](O)(C(=O)CO)C[C@@H]3O[C@H]1C[C@H](N)[C@H](O)[C@H](C)O1 [Doxorubicin] + C=C(F)C(=O)N1CCN(c2nc(OC[C@@H]3CCCN3C)nc3c2CCN(c2cccc4cccc(Cl)c24)C3)C[C@@H]1CC#N [adagrasib] | -0.16 | 4.49
2 | CN(Cc1cnc2nc(N)nc(N)c2n1)c1ccc(C(=O)N[C@@H](CCC(=O)O)C(=O)O)cc1 [Methotrexate] + C=C(F)C(=O)N1CCN(c2nc(OC[C@@H]3CCCN3C)nc3c2CCN(c2cccc4cccc(Cl)c24)C3)C[C@@H]1CC#N [adagrasib] | -2.65 | -8.99
3 | CCc1cnn2c(NCc3ccc[n+]([O-])c3)cc(N3CCCC[C@H]3CCO)nc12 + C=C(F)C(=O)N1CCN(c2nc(OC[C@@H]3CCCN3C)nc3c2CCN(c2cccc4cccc(Cl)c24)C3)C[C@@H]1CC#N [adagrasib] | -0.08 | 0.92
4 | Nc1ccn([C@@H]2O[C@H](CO)[C@@H](O)[C@@H]2O)c(=O)n1 [Cytarabin] + C=C(F)C(=O)N1CCN(c2nc(OC[C@@H]3CCCN3C)nc3c2CCN(c2cccc4cccc(Cl)c24)C3)C[C@@H]1CC#N [adagrasib] | -0.23 | 6.75
5 | On1ncc2cc(CCc3nn[nH]n3)ccc21 + C=C(F)C(=O)N1CCN(c2nc(OC[C@@H]3CCCN3C)nc3c2CCN(c2cccc4cccc(Cl)c24)C3)C[C@@H]1CC#N [adagrasib] | 7.37 | -2.04
6 | O=c1[nH]cc(F)c(=O)[nH]1 [Fluorouracil (5-FU)] + C=C(F)C(=O)N1CCN(c2nc(OC[C@@H]3CCCN3C)nc3c2CCN(c2cccc4cccc(Cl)c24)C3)C[C@@H]1CC#N [adagrasib] | 9.62 | -0.87
7 | CC(C)C[C@@H](C(=O)N[C@H](C(=O)OC1CCCC1)c1ccccc1)[C@H](O)C(=O)NO [Tosedostat] + C=C(F)C(=O)N1CCN(c2nc(OC[C@@H]3CCCN3C)nc3c2CCN(c2cccc4cccc(Cl)c24)C3)C[C@@H]1CC#N [adagrasib] | 1.4 | 19.8
8 | CC(=O)O[C@H]1C(=O)[C@@]2(C)[C@H]([C@H](OC(=O)c3ccccc3)[C@]3(O)C[C@H](OC(=O)[C@H](O)[C@@H](NC(=O)c4ccccc4)c4ccccc4)C(C)=C1C3(C)C)[C@]1(OC(C)=O)CO[C@@H]1C[C@@H]2O [Paclitaxel] + C=C(F)C(=O)N1CCN(c2nc(OC[C@@H]3CCCN3C)nc3c2CCN(c2cccc4cccc(Cl)c24)C3)C[C@@H]1CC#N [adagrasib] | 0.85 | 2.18
9 | COc1cc2cc(c1Cl)N(C)C(=O)C[C@H](OC(=O)C(C)C)[C@]1(C)O[C@@H]1[C@H](C)[C@@H]1C[C@@](O)(NC(=O)O1)[C@H](OC)/C=C/C=C(\C)C2 [Ansamitocin P3] + C=C(F)C(=O)N1CCN(c2nc(OC[C@@H]3CCCN3C)nc3c2CCN(c2cccc4cccc(Cl)c24)C3)C[C@@H]1CC#N [adagrasib] | -2.93 | 2.67
10 | O=C(O)CCCCC(CCSCc1ccccc1)SCc1ccccc1 (stereo unspecified) [CPI-613] + C=C(F)C(=O)N1CCN(c2nc(OC[C@@H]3CCCN3C)nc3c2CCN(c2cccc4cccc(Cl)c24)C3)C[C@@H]1CC#N [adagrasib] | -5.48 | 1.41
11 | COC(=O)c1ccc2c(c1)NC(=O)/C2=C(\Nc1ccc(N(C)C(=O)CN2CCN(C)CC2)cc1)c1ccccc1 [Nintedanib] + C=C(F)C(=O)N1CCN(c2nc(OC[C@@H]3CCCN3C)nc3c2CCN(c2cccc4cccc(Cl)c24)C3)C[C@@H]1CC#N [adagrasib] | 7.6 | 4.49
12 | CN[C@@H](C)C(=O)N[C@H](C(=O)N1CCC[C@H]1c1nc(C(=O)c2ccc(F)cc2)cs1)C1CCCCC1 [LCL161] + C=C(F)C(=O)N1CCN(c2nc(OC[C@@H]3CCCN3C)nc3c2CCN(c2cccc4cccc(Cl)c24)C3)C[C@@H]1CC#N [adagrasib] | -1.85 | 1.58
13 | CC(C)NC[C@@H](C(=O)N1CCN(c2ncnc3c2[C@H](C)C[C@H]3O)CC1)c1ccc(Cl)cc1 [Ipatasertib] + C=C(F)C(=O)N1CCN(c2nc(OC[C@@H]3CCCN3C)nc3c2CCN(c2cccc4cccc(Cl)c24)C3)C[C@@H]1CC#N [adagrasib] | 1.14 | 6.57
14 | Cn1nnc2c(C(N)=O)ncn2c1=O [Temozolomide] + C=C(F)C(=O)N1CCN(c2nc(OC[C@@H]3CCCN3C)nc3c2CCN(c2cccc4cccc(Cl)c24)C3)C[C@@H]1CC#N [adagrasib] | 12.1 | 4.71
15 | CC[C@]1(O)C[C@@H]2CN(CCc3c([nH]c4ccccc34)[C@@](C(=O)OC)(c3cc4c(cc3OC)N(C)[C@H]3[C@@](O)(C(=O)OC)[C@H](OC(C)=O)[C@]5(CC)C=CCN6CC[C@]43[C@@H]65)C2)C1 [Vinblastine] + C=C(F)C(=O)N1CCN(c2nc(OC[C@@H]3CCCN3C)nc3c2CCN(c2cccc4cccc(Cl)c24)C3)C[C@@H]1CC#N [adagrasib] | -3.66 | 4.5
16 | CS(=O)(=O)c1ccc(-c2cnc(N)c(C(=O)Nc3ccccc3)n2)cc1 [VE-821] + C=C(F)C(=O)N1CCN(c2nc(OC[C@@H]3CCCN3C)nc3c2CCN(c2cccc4cccc(Cl)c24)C3)C[C@@H]1CC#N [adagrasib] | 4.3 | 12.8
17 | CN(NC(=O)CC(=O)NN(C)C(=S)c1ccccc1)C(=S)c1ccccc1 [Elesclomol] + C=C(F)C(=O)N1CCN(c2nc(OC[C@@H]3CCCN3C)nc3c2CCN(c2cccc4cccc(Cl)c24)C3)C[C@@H]1CC#N [adagrasib] | 2.19 | 6.34
18 | N[C@@H](Cc1ccc(N(CCCl)CCCl)cc1)C(=O)O [Melphalan] + C=C(F)C(=O)N1CCN(c2nc(OC[C@@H]3CCCN3C)nc3c2CCN(c2cccc4cccc(Cl)c24)C3)C[C@@H]1CC#N [adagrasib] | 3.55 | -0.68
19 | COc1cc2c(Oc3ccc4[nH]c(C)cc4c3F)ncnc2cc1OCCCN1CCCC1 [Cediranib] + C=C(F)C(=O)N1CCN(c2nc(OC[C@@H]3CCCN3C)nc3c2CCN(c2cccc4cccc(Cl)c24)C3)C[C@@H]1CC#N [adagrasib] | -4.17 | -0.83
20 | CO[C@H]1C[C@@H]2CC[C@@H](C)[C@@](O)(O2)C(=O)C(=O)N2CCCC[C@H]2C(=O)O[C@H]([C@H](C)C[C@@H]2CC[C@@H](O)[C@H](OC)C2)CC(=O)[C@H](C)/C=C(\C)[C@@H](O)[C@@H](OC)C(=O)[C@H](C)C[C@H](C)/C=C/C=C/C=C/1C [Rapamycin] + C=C(F)C(=O)N1CCN(c2nc(OC[C@@H]3CCCN3C)nc3c2CCN(c2cccc4cccc(Cl)c24)C3)C[C@@H]1CC#N [adagrasib] | 4.11 | 6.52
21 | Cc1cc(Nc2nc(N[C@@H](C)c3ncc(F)cn3)ncc2Cl)[nH]n1 [AZD-1480] + C=C(F)C(=O)N1CCN(c2nc(OC[C@@H]3CCCN3C)nc3c2CCN(c2cccc4cccc(Cl)c24)C3)C[C@@H]1CC#N [adagrasib] | 3.87 | 1.14
22 | COc1cc2c(NC3CCN(C(C)C)CC3)nc(C3CCCCC3)nc2cc1OCCCN1CCCC1 [UNC0638] + C=C(F)C(=O)N1CCN(c2nc(OC[C@@H]3CCCN3C)nc3c2CCN(c2cccc4cccc(Cl)c24)C3)C[C@@H]1CC#N [adagrasib] | 5.77 | 13.2
23 | COc1cc2nccc(Oc3ccc(NC(=O)C4(C(=O)Nc5ccc(F)cc5)CC4)cc3)c2cc1OC [XL-184] + C=C(F)C(=O)N1CCN(c2nc(OC[C@@H]3CCCN3C)nc3c2CCN(c2cccc4cccc(Cl)c24)C3)C[C@@H]1CC#N [adagrasib] | 4.53 | 9.25
24 | CC(C)(C(=O)NCC(F)(F)C(F)(F)F)C(=O)N[C@@H]1C(=O)Nc2ccccc2-c2ccccc21 + C=C(F)C(=O)N1CCN(c2nc(OC[C@@H]3CCCN3C)nc3c2CCN(c2cccc4cccc(Cl)c24)C3)C[C@@H]1CC#N [adagrasib] | 6.57 | 9.86
25 | CCc1cccc(CC)c1NC(=O)c1nn(C)c2c1CCc1cnc(Nc3ccc(C(=O)NC4CCN(C)CC4)cc3OC(F)(F)F)nc1-2 [NMS-P715] + C=C(F)C(=O)N1CCN(c2nc(OC[C@@H]3CCCN3C)nc3c2CCN(c2cccc4cccc(Cl)c24)C3)C[C@@H]1CC#N [adagrasib] | -2.37 | 2.41
26 | NC(=O)c1ccc(-c2nc(-c3ccccn3)c(-c3ccc4c(c3)OCO4)[nH]2)cc1 + C=C(F)C(=O)N1CCN(c2nc(OC[C@@H]3CCCN3C)nc3c2CCN(c2cccc4cccc(Cl)c24)C3)C[C@@H]1CC#N [adagrasib] | 0.05 | -9.94
27 | C[C@@H]1C[C@H]2[C@@H]3CCC4=CC(=O)C=C[C@]4(C)[C@@]3(F)[C@@H](O)C[C@]2(C)[C@@]1(O)C(=O)CO [Dexamethasone] + C=C(F)C(=O)N1CCN(c2nc(OC[C@@H]3CCCN3C)nc3c2CCN(c2cccc4cccc(Cl)c24)C3)C[C@@H]1CC#N [adagrasib] | -4.66 | -0.93
28 | Nc1nc(F)nc2c1ncn2[C@@H]1O[C@H](CO)[C@@H](O)[C@@H]1O [Fludarabine] + C=C(F)C(=O)N1CCN(c2nc(OC[C@@H]3CCCN3C)nc3c2CCN(c2cccc4cccc(Cl)c24)C3)C[C@@H]1CC#N [adagrasib] | -6.95 | 2.57
